Test results from patent US20100160209A1, “Composition and Method for Increasing Cell Permeability of a Compound” (SmithKline Beecham Corporation, priority 2006, published 2010).
Ends that are not written are not given here. Peptide text beside a SMILES is read from it. * marks the point of attachment. Boc = CC(C)(C)OC(=O)*; OSu = O=C1CCC(=O)N1O*

Experiments:
[1] = solubility in aqueous solutions; assay type: physicochemical; conditions: for CPS-Cys particularly in slightly acidic pH
From the text: (§1) Initial synthesis was of the 11-mer CPS peptide in which its C-terminal end was an N-hydroxysuccinimide (NHS) ester. This CPS-OSu peptide was expected to be highly reactive to the amine groups of human insulin and thus facilitate the conjugation reactions between CPS and Insulin. […] As a result, this CPS-OSu activated ester was cyclized via an internal amide bond. To overcome this side-reaction, a derivative of the CPS-OSu peptide in which all three amine groups of this peptide were protected by a Boc group (tert-Butyloxycarbonyl) was also made.
(§2) The 12-mer CPS-Cys peptide Sequence of CPS-Cys Peptide: K-L-K-L-A-L-A-L-A-L-A-C (Seq ID no. 2) was synthesized by conventional solid-phase peptide synthesis methodology. Standard synthesis protocols based on Fmoc chemistry were used. After synthesis, the crude peptides were cleaved from the solid support and purified by C18 reverse-phase HPLC eluted with acetonitrile aqueous buffers. The purified peptide was characterized by analytical HPLC analysis (FIG. 2, top panel) and mass spectrometry analysis (FIG. 2a, bottom panel, calculated MW=1227.6 Da and measured MW (MH+)=1227.9 Da).

stability of the peptide = assay type: physicochemical; conditions: CPS-OSu: reacts with its own amine groups, cyclized via internal amide bond
From the text: as §1, §2

CCK-releasing cells = conditions: "is said to elicit"; assay of WO 01/41812; cited from earlier work

Compound	solubility in aqueous solutions [1]	stability of the peptide (stability of the peptide)	increase in CCK secretion (CCK-releasing cells) [%]
CC(C)C[C@H](NC(=O)[C@H](C)NC(=O)[C@H](CC(C)C)NC(=O)[C@H](CCCCNC(=O)OC(C)(C)C)NC(=O)[C@H](CC(C)C)NC(=O)[C@H](CCCCNC(=O)OC(C)(C)C)NC(=O)OC(C)(C)C)C(=O)N[C@@H](C)C(=O)N[C@@H](CC(C)C)C(=O)N[C@@H](C)C(=O)N[C@@H](CC(C)C)C(=O)N[C@@H](C)C(=O)ON1C(=O)CCC1=O [amine-protected peptide] (Boc-K(Boc)LK(Boc)LALALALA-OSu)	poor solubility		
KLKLALALALAC [CPS-Cys peptide, K-L-K-L-A-L-A-L-A-L-A-C]	good solubility	stable	
STFWAYQPDGDNDPTDYQKYEHTSSPSQLLAPGDYPCVIEV (listed as Homo sapiens) [Native LCRF, luminal cholecystokinin releasing factor]			~300
